According to PubChem BioAssay AID434987 (Southern Research Specialized Biocontainment Screening …, 2010):
Active and inactive are the calls of the source. How the calls were made is not given here.

System: M. tuberculosis H37Rv growth inhibition with meropenem
Assay: dose response, H37Rv, with and without meropenem (AID 434987);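 further: growth over 7 days at 37 °C before Alamar Blue read on day 9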
[1] = M. tuberculosis H37Rv growth inhibition, measured here: IC50 without meropenem
[2] = M. tuberculosis H37Rv growth inhibition, measured here: IC90 without meropenem
[3] = measured here: IC90 with meropenem

Row | Compound | IC50 | IC50 [1] | IC90 [2] | IC90 [3]
1 | CC12CCC(C/C1=N\N=C1\NC(=O)/C(=C\c3cccc(Br)c3)S1)C2(C)C (stereo unspecified) | 9.74 µM | 26.6 µM | 37.3 µM | 37.7 µM
2 | CCSc1nnc(NC(=O)CSc2nccn2-c2cccc(C)c2)s1 | > 100 µM (inactive) | > 100 µM | > 100 µM | > 100 µM
3 | CCn1c(-c2ccc(-c3ccccc3)cc2)c[nH]c1=S | 29.1 µM (inactive) | 47.8 µM | > 100 µM | > 100 µM
4 | Cc1cc(C)c2oc(-c3ccc(Cl)c(NC(=O)c4ccc(C#N)cc4F)c3)nc2c1 | > 100 µM (inactive) | > 100 µM | > 100 µM | > 100 µM
5 | CC1CCCN(S(=O)(=O)c2ccc(C(=O)Nc3nnc(-c4ccncc4)o3)cc2)C1 (stereo unspecified) | 32.4 µM (inactive) | 49.3 µM | 78.1 µM | 64.8 µM
6 | Cc1cccc(OCc2nc(-c3ccccn3)n[nH]2)c1 | 3.43 µM | 22.5 µM | 25.6 µM | 7.37 µM
7 | Cc1ccccc1CSc1nnc(C)c(=O)n1N | 19.5 µM (inactive) | 45.4 µM | > 100 µM | 32.3 µM
8 | CCCSc1nnc(NC(=O)c2sc3nc(-c4cccs4)ccc3c2N)s1 | 62.8 µM (inactive) | > 100 µM | > 100 µM | > 100 µM
9 | CCCN1C(=O)c2ccc(C(=O)Nc3cc(C)on3)cc2C1=O | > 100 µM (inactive) | > 100 µM | > 100 µM | > 100 µM
10 | Cc1cc(NC(=O)COc2nnc(-c3ccccc3)c3ccccc23)no1 | 14 µM | > 100 µM | > 100 µM | > 25 µM
11 | Cc1nnc(SCc2ccc(C(=O)Nc3cc(Cl)ccc3C)cc2)s1 | > 100 µM (inactive) | > 100 µM | > 100 µM | > 100 µM
12 | CCC1Nc2ncnc(N3CCN(c4ccccc4)CC3)c2N(Cc2ccc(Br)cc2)C1=O (stereo unspecified) | > 100 µM (inactive) | > 100 µM | > 100 µM | > 100 µM
13 | COc1c(NC(C)=O)c2ccccc2c2ccccc12 | > 100 µM (inactive) | > 100 µM | > 100 µM | > 100 µM
14 | COc1cc(OC)cc(-c2cc3ccc(OC)cc3cn2)c1 | 29 µM (inactive) | 39 µM | 85.8 µM | 76.9 µM
15 | C=C(C)COc1ccc(-c2nc(N)ncc2Oc2ccc(OC)cc2)c(O)c1 | > 100 µM (inactive) | > 100 µM | > 100 µM | > 100 µM
16 | CCc1ccccc1NC(=O)CNC(=O)c1cc(C2CC2)nn1-c1ccccc1 | > 100 µM (inactive) | > 100 µM | > 100 µM | > 100 µM
17 | CN=C(Nc1cc(Cl)ccc1Cl)SC1CC(=O)N(c2ccc(C(=O)OC)cc2)C1=O (stereo unspecified) | > 100 µM (inactive) | > 100 µM | > 100 µM | > 100 µM
18 | CCOc1ccc2nc(SCC(=O)Nc3nonc3C)[nH]c2c1 | 32.8 µM | > 100 µM | > 100 µM | > 100 µM
19 | O=C(Nc1c2c(nc3ccccc13)CCCC2)c1ccccc1F | 42.6 µM (inactive) | 74 µM | > 100 µM | > 50 µM
20 | COc1cc(OC)cc(-c2nnc(NC(=O)CCS(=O)(=O)c3ccc(C)cc3)o2)c1 | 32.2 µM | > 100 µM | > 100 µM | > 100 µM

Row | Compound | IC50 | IC50 [1] | IC90 [2] | IC90 [3]
21 | Cc1ccccc1OCC(=O)Nc1ccccc1-c1ccccc1 | 6.04 µM | > 100 µM | > 100 µM | > 100 µM
22 | O=C1c2ccccc2N2C(=O)c3ccccc3C2N1O (stereo unspecified) | 13.9 µM | 39.3 µM | > 100 µM | 56.4 µM
23 | O=c1[nH]c(=S)[nH]c(O)c1N=Nc1ccc2c(c1)OCCO2 | > 100 µM (inactive) | > 100 µM | > 100 µM | > 100 µM
24 | Cc1nnc(SCc2cccc(Cl)c2)n(N)c1=O | 4.43 µM | 12 µM | 18.1 µM | 10.1 µM
25 | NS(=O)(=O)c1cccnc1Nc1c(Cl)cccc1Cl | > 100 µM (inactive) | > 100 µM | > 100 µM | > 100 µM
26 | CCC(C)C(NC(N)=O)C(=O)Nc1ccc(OCc2ccccc2)cc1 (stereo unspecified) | > 100 µM (inactive) | > 100 µM | > 100 µM | > 100 µM
27 | O=c1cc(C(F)(F)F)c2sc(N3CCCCC3)nc2[nH]1 | 45.4 µM (inactive) | > 100 µM | > 100 µM | 49.3 µM
28 | CCN=c1scc(-c2ccccc2)n1/N=C/c1ccccn1 | 93.2 µM (inactive) | > 100 µM | > 100 µM | > 100 µM
29 | Cc1ccc(SCc2c(-c3ccccc3)nn(C)c2Cl)cc1 | 20.9 µM | 58.7 µM | > 100 µM | > 100 µM
30 | O=C(NC(=S)N1CCOCC1)c1ccc([N+](=O)[O-])cc1 | 20.7 µM (inactive) | 46.8 µM | > 100 µM | > 100 µM
31 | Cc1ccc(SCCNC(=O)c2ccc(C)c([N+](=O)[O-])c2)cc1 | 49.6 µM (inactive) | > 100 µM | > 100 µM | 54 µM
32 | O=C(CCN1CCOCC1)c1ccc(N2CCCCC2)cc1 | 14 µM (inactive) | 27.5 µM | 37.3 µM | 72.7 µM
33 | N#CCOC(=O)/C=C/c1ccc2c(c1)OCO2 | 29.7 µM | > 100 µM | > 100 µM | > 50 µM
34 | Cn1ccnc1C(=O)Cc1ccc([N+](=O)[O-])cc1 | 7.78 µM | 44.1 µM | 48.9 µM | 22.6 µM
35 | CS(=O)(=O)N(Cc1ccc(Cl)cc1)c1ccc(C(=O)NCCC2=CCCCC2)cc1 | > 100 µM (inactive) | > 100 µM | > 100 µM | > 100 µM
36 | CC(NC(=O)CSc1nc2ccccc2c(=O)[nH]1)c1ccccc1 (stereo unspecified) | 18.9 µM (inactive) | 23.8 µM | > 100 µM | 60.9 µM
37 | Nc1c(C(=O)c2cccs2)sc2nsc(SCCN3CCCCC3)c12 | > 100 µM (inactive) | > 100 µM | > 100 µM | > 100 µM
38 | N#Cc1ccc(NC(=O)COC(=O)C2=COCCO2)cc1 | > 100 µM (inactive) | > 100 µM | > 100 µM | > 100 µM
39 | Cc1ccccc1Cn1cc(NC(=O)CSc2nc3c(c(C(F)(F)F)n2)CCc2ccccc2-3)cn1 | 26.4 µM | > 100 µM | > 100 µM | > 100 µM
40 | c1ccc(-n2c3ccccc3c3ccccc32)cc1 | 3.27 µM | > 100 µM | > 100 µM | 22.7 µM

Row | Compound | IC50 | IC50 [1] | IC90 [2] | IC90 [3]
41 | O=C(CSc1nnc(COc2ccccc2)o1)N1CCN(c2ccccc2)CC1 | > 100 µM (inactive) | > 100 µM | > 100 µM | > 100 µM
42 | Cc1ccc(-c2cc(C(=O)N/N=C/C=C/c3ccccc3)n[nH]2)o1 | > 100 µM (inactive) | > 100 µM | > 100 µM | > 100 µM
43 | NC(=O)CC(NC(=O)Cc1ccc(Br)cc1)c1ccc(NC2CCCCCC2)c([N+](=O)[O-])c1 (stereo unspecified) | 72.9 µM (inactive) | > 100 µM | > 100 µM | > 100 µM
44 | Cc1ccc(-n2nnnc2Sc2nc([N+](=O)[O-])nn2C)cc1 | 10.2 µM | 51.4 µM | 93.5 µM | > 100 µM
45 | O=C(OCn1nnc2ccccc2c1=O)c1ccc2c(=O)n3c(nc2c1)CCC3 | 18 µM (inactive) | 35.4 µM | > 100 µM | 26.1 µM
46 | CCOC(=O)CSc1nnc(CNC(=O)c2cccs2)n1CCc1ccccc1 | 20.1 µM (inactive) | 35.2 µM | 55.8 µM | 49.5 µM
47 | CCOc1ccc(N(CC(=O)NCCSCc2ccccc2Cl)S(C)(=O)=O)cc1 | > 100 µM (inactive) | > 100 µM | > 100 µM | > 100 µM
48 | COCCCNc1nc(SCc2ccccc2)nc2sc3c(c12)CCC3 | 97.3 µM (inactive) | > 100 µM | > 100 µM | > 100 µM
49 | O=c1c2c3n(c(=S)nc2[nH]n1-c1ccccc1)CCCCC3 | 12.4 µM (inactive) | 27.1 µM | > 100 µM | 13.3 µM
50 | OCCOCCn1c(C2CCCN2c2nc(-c3ccc(F)cc3)cs2)nc2cc(Cl)c(Cl)cc21 (stereo unspecified) | > 100 µM (inactive) | > 100 µM | > 100 µM | > 100 µM
51 | COc1ccc(-c2csc(/C=C/c3ccc4c(c3)OCO4)n2)cc1OC | 16.1 µM | > 100 µM | > 100 µM | > 100 µM
52 | COc1cccc(/C=N/NC(=O)NC23CC4CC(CC(C4)C2)C3)c1O | 2.93 µM | 46.9 µM | > 100 µM | 26.8 µM
53 | CN(c1ccc(C(=O)Nc2ccccc2Sc2ccccc2)cc1)S(C)(=O)=O | > 100 µM (inactive) | > 100 µM | > 100 µM | > 100 µM
54 | COc1cccc(-c2nnn(CC(=O)Nc3cc(OC)c(NC(=O)c4ccco4)cc3OC)n2)c1 | 31.2 µM | > 100 µM | > 100 µM | > 100 µM
55 | Nc1c2c(nc3sc4c(c13)CCCC4)-c1ccccc1CC2 | 6.11 µM | > 100 µM | > 100 µM | > 100 µM
56 | COc1nc(-c2ccccc2)ccc1-c1noc(-c2cccnc2)n1 | > 100 µM (inactive) | > 100 µM | > 100 µM | > 100 µM
57 | Fc1ccc(C2Nc3cccc4cccc(c34)N2)cc1 | > 100 µM (inactive) | > 100 µM | > 100 µM | > 100 µM
58 | CCC(CC)c1nnc(NC(=O)c2ccc(N3CCCCC3)c([N+](=O)[O-])c2)s1 | 9.31 µM | 75.9 µM | > 100 µM | 44 µM
59 | Clc1ccc(/C=N/NC2=Nc3cccc4cccc2c34)cc1 | > 100 µM (inactive) | > 100 µM | > 100 µM | > 100 µM
